Values of other authors in patent publication US8273880B2, “Pyrazole compounds with inhibitory activity against ROS kinase” (Korea Institute of Science and Technology, priority 2009, dated 2012).

Molecular target: ROS kinase (Homo sapiens, UniProt P08922)
Set-up: literature Reaction Biology Corporation
Settings: Data from Reaction Biology corporation (website); read-out: Inhibitory Activity against ROS (IC50); cited from earlier work

Chain of ROS kinase (P08922 28-2347): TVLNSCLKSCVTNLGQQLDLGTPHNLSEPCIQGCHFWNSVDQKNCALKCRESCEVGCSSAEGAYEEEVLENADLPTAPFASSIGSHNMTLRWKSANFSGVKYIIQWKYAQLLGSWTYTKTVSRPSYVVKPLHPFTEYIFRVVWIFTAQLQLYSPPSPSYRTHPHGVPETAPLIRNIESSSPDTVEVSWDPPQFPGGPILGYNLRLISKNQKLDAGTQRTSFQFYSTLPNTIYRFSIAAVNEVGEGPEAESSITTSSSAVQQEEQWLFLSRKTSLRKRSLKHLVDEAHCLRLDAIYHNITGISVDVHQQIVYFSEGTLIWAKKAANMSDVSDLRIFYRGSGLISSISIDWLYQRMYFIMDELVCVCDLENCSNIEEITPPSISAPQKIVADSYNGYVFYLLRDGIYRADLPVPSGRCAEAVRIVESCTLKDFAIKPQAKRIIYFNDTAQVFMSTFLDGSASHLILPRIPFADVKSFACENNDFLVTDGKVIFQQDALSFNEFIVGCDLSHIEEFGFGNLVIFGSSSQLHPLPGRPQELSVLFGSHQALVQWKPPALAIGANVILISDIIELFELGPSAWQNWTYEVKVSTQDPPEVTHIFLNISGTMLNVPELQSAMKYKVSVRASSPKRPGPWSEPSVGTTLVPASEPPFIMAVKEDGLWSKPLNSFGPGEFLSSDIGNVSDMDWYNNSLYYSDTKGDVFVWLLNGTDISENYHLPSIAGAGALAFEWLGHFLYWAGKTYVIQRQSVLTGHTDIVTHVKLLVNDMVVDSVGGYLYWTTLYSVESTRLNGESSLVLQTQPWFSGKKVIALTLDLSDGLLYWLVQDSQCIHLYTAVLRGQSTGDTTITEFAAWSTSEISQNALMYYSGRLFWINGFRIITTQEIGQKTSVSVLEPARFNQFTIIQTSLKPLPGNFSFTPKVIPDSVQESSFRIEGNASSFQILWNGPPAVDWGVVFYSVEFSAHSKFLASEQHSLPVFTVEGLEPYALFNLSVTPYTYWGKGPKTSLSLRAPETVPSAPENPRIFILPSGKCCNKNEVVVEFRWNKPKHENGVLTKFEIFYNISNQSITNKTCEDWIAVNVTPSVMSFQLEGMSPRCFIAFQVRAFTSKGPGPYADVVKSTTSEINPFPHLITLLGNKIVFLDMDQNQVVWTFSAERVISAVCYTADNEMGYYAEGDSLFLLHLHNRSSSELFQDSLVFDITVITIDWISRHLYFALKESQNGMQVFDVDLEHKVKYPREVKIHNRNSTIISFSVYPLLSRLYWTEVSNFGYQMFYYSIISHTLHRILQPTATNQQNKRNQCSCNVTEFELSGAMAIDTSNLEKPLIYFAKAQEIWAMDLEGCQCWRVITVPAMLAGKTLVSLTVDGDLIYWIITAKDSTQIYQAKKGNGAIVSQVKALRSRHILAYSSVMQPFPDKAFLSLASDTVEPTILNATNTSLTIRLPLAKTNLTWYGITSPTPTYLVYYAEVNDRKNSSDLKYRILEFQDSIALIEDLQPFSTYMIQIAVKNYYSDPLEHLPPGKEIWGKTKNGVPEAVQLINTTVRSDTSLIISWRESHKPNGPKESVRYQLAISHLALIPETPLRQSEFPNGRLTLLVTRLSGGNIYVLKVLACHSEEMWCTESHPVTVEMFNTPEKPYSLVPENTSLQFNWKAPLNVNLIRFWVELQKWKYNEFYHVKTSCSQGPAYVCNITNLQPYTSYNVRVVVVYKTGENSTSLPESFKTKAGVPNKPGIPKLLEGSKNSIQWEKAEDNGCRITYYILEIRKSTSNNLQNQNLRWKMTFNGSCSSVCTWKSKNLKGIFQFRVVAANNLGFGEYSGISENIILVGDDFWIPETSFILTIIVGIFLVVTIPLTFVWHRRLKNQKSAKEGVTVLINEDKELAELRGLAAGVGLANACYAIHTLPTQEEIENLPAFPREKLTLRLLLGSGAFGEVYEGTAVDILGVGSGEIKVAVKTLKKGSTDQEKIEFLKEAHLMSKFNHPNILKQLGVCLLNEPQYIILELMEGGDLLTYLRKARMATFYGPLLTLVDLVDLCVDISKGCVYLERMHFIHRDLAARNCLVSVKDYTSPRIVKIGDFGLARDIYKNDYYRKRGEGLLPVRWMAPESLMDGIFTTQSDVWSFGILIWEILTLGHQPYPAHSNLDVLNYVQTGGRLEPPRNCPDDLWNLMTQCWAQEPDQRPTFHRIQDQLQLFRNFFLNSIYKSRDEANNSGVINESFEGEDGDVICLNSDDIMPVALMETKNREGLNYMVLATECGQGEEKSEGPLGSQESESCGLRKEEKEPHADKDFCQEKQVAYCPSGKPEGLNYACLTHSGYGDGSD

Row | Compound | IC50
1 | PDGFR I-III | 48 µM
2 | COc1cc2ncnc(Nc3cccc(Cl)c3)c2cc1OC [AG1478] | 13.6 µM
